From the CheMixHub viscosity set

Assay: xn = mol fraction of the nth substance listed

CC(=O)OCCC(C)C + c1ccccc1
viscosity [mPa·s], 101 kPa
Conditions | 298.15 K | 308.15 K
x1 = 0.0442 | 0.606 | 0.532
x1 = 0.1509 | 0.614 | 0.547
x1 = 0.2507 | 0.623 | 0.563
x1 = 0.3514 | 0.635 | 0.58
x1 = 0.4526 | 0.65 | 0.6
x1 = 0.4814 | 0.655 | 0.606
x1 = 0.5508 | 0.667 | 0.621
x1 = 0.6491 | 0.686 | 0.644
x1 = 0.7484 | 0.709 | 0.67
x1 = 0.8475 | 0.735 | 0.698
x1 = 0.9443 | 0.763 | 0.728

CC(=O)O.OCCNCCO + O
viscosity [mPa·s], 100 kPa
Conditions | x1 = 0.0126 | x2 = 0.1586 | x2 = 0.2897 | x2 = 0.4528 | x2 = 0.5293 | x2 = 0.6932 | x2 = 0.8573 | x2 = 0.9194 | x2 = 0.9549
293.15 K | 1.37 | 3625 | 2208 | 1042 | 658.3 | 162.6 | 19.25 | 6.362 | 3.027
303.15 K | 1.099 | 1492 | 946.1 | 473.9 | 310.7 | 87.19 | 12.67 | 4.584 | 2.301
313.15 K | 0.9188 | 686.5 | 452 | 239.3 | 162.4 | 51.05 | 8.836 | 3.442 | 1.818
323.15 K | 0.7821 | 346.1 | 236.3 | 131.8 | 92.22 | 32.12 | 6.455 | 2.69 | 1.484

CC(=O)OCCC(C)C + C1CCCCC1
viscosity [mPa·s], 101 kPa
Conditions | 298.15 K | 308.15 K
x1 = 0.0292 | 0.862 | 0.73
x1 = 0.0895 | 0.813 | 0.686
x1 = 0.1448 | 0.776 | 0.653
x1 = 0.2104 | 0.74 | 0.621
x1 = 0.3069 | 0.7 | 0.587
x1 = 0.3512 | 0.687 | 0.577
x1 = 0.3964 | 0.676 | 0.569
x1 = 0.4958 | 0.661 | 0.561
x1 = 0.6222 | 0.661 | 0.57
x1 = 0.753 | 0.682 | 0.603
x1 = 0.9257 | 0.747 | 0.69

CC(=O)OCCC(C)C + Cc1cccc(C)c1
viscosity [mPa·s], 101 kPa
Conditions | 298.15 K | 308.15 K
x1 = 0.0471 | 0.58 | 0.529
x1 = 0.1507 | 0.583 | 0.538
x1 = 0.286 | 0.593 | 0.555
x1 = 0.3495 | 0.599 | 0.564
x1 = 0.4475 | 0.614 | 0.582
x1 = 0.5021 | 0.625 | 0.594
x1 = 0.5481 | 0.634 | 0.604
x1 = 0.6499 | 0.659 | 0.63
x1 = 0.7526 | 0.69 | 0.66
x1 = 0.8535 | 0.724 | 0.693
x1 = 0.942 | 0.757 | 0.725

CC(=O)OCCC(C)C + CCCCCC
viscosity [mPa·s], 101 kPa
Conditions | 298.15 K | 308.15 K
x1 = 0.0521 | 0.303 | 0.286
x1 = 0.149 | 0.328 | 0.313
x1 = 0.2509 | 0.358 | 0.345
x1 = 0.3492 | 0.391 | 0.38
x1 = 0.4851 | 0.445 | 0.435
x1 = 0.5317 | 0.466 | 0.456
x1 = 0.5507 | 0.475 | 0.464
x1 = 0.6504 | 0.526 | 0.514
x1 = 0.7492 | 0.585 | 0.57
x1 = 0.8506 | 0.655 | 0.635
x1 = 0.9546 | 0.74 | 0.711

Cl + CCCCCCCO
298.15 K, 101 kPa
Conditions | viscosity [mPa·s]
x1 = 0.05 | 6.22
x1 = 0.1 | 7.02
x1 = 0.15 | 7.6
x1 = 0.19 | 8.18
x1 = 0.23 | 8.66
x1 = 0.26 | 9.02
x1 = 0.29 | 9.22
x1 = 0.32 | 9.3
x1 = 0.34 | 9.26
x1 = 0.37 | 9.08
x1 = 0.39 | 8.86
x1 = 0.41 | 8.62
x1 = 0.43 | 8.4
x1 = 0.45 | 8.2

CCOP(OCC)OCC + CC#N
298.15 K, 101 kPa
Conditions | viscosity [mPa·s]
x1 = 0.2 | 0.452
x1 = 0.4 | 0.512
x1 = 0.6 | 0.573
x1 = 0.8 | 0.642

CCCOCC(C)OCC(C)O (stereo not drawn) + CCO
viscosity [mPa·s], 101.33 kPa
Conditions | 298.15 K | 308.15 K | 318.15 K
x1 = 0.05 | 1.27 | 1.046 | 0.872
x1 = 0.1 | 1.446 | 1.181 | 0.978
x1 = 0.15 | 1.621 | 1.315 | 1.081
x1 = 0.2 | 1.799 | 1.446 | 1.18
x1 = 0.25 | 1.994 | 1.572 | 1.278
x1 = 0.3 | 2.144 | 1.706 | 1.374
x1 = 0.3501 | 2.322 | 1.83 | 1.468
x1 = 0.4 | 2.485 | 1.944 | 1.55
x1 = 0.4501 | 2.643 | 2.055 | 1.631
x1 = 0.5 | 2.795 | 2.163 | 1.705
x1 = 0.55 | 2.942 | 2.27 | 1.777
x1 = 0.6 | 3.081 | 2.367 | 1.842
x1 = 0.6497 | 3.218 | 2.463 | 1.905
x1 = 0.6996 | 3.343 | 2.55 | 1.965
x1 = 0.7496 | 3.475 | 2.627 | 2.02
x1 = 0.8 | 3.593 | 2.702 | 2.081
x1 = 0.8499 | 3.704 | 2.764 | 2.131
x1 = 0.8999 | 3.807 | 2.839 | 2.177
x1 = 0.95 | 3.896 | 2.906 | 2.215

CC(=O)Nc1ccccc1 + CC(=O)O
viscosity [mPa·s], 101.3 kPa
Conditions | x1 = 0.1 | x1 = 0.204 | x1 = 0.288
298.15 K | 19 | 30.2 | 43.6
323.15 K | 11.8 | 18.2 | 27.7

OCCC(O)CO (stereo not drawn) + O
viscosity [mPa·s], 101 kPa
Conditions | 293.15 K | 298.15 K | 303.15 K | 308.15 K | 313.15 K | 318.15 K | 323.15 K
x1 = 0.005 | 1.089 | 0.984 | 0.889 | 0.798 | 0.7 | 0.656 | 0.595
x1 = 0.01 | 1.271 | 1.096 | 0.968 | 0.863 | 0.769 | 0.703 | 0.626
x1 = 0.015 | 1.46 | 1.193 | 1.067 | 0.942 | 0.853 | 0.77 | 0.678
x1 = 0.02 | 1.617 | 1.328 | 1.195 | 1.058 | 0.937 | 0.857 | 0.732
